Measured values published in the supplement of paper PMC4862054.

Columns and labels:
Settings in all cases: incubation time: 72 h
[1] = system: DU-4475; assay: normalised viability (% of control), CellTiter-Blue; higher = more viable cells (about 100 = DMSO control)
Summary of the method: (§1)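 Each entry is normalised viability at a single listed concentration within a series. It comes from breast cancer cell lines incubated 72 h with compound in 384-well plates, then measured with CellTiter-Blue fluorescence at 560/590 nm. Every plate was normalised between vehicle (100) and a positive kill control (0).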

[2] = system: HCC1937; assay: as above
Summary of the method: as §1

[3] = system: MDA-MB-436; assay: as above
Summary of the method: as §1

[4] = system: CAL-85-1; assay: as above
Summary of the method: as §1

[5] = system: BT-549; assay: as above
Summary of the method: as §1

[6] = system: BT-474; assay: as above
Summary of the method: as §1

[7] = system: HCC1143; assay: as above
Summary of the method: as §1

[8] = system: CAL-148; assay: as above
Summary of the method: as §1

[9] = system: HCC1599; assay: as above
Summary of the method: as §1

[10] = system: MDA-MB-231; assay: as above
Summary of the method: as §1

[11] = system: Hs578T; assay: as above
Summary of the method: as §1

[12] = system: MDA-MB-453; assay: as above
Summary of the method: as §1

[13] = system: CAL-120; assay: as above
Summary of the method: as §1

[14] = system: MDA-MB-468; assay: as above
Summary of the method: as §1

[15] = system: SK-BR-3; assay: as above
Summary of the method: as §1

[16] = system: MFM-223; assay: as above
Summary of the method: as §1

[17] = system: HDQ-P1; assay: as above
Summary of the method: as §1

[18] = system: CAL-51; assay: as above
Summary of the method: as §1

[19] = system: BT-474; assay: drug sensitivity score (DSS), CellTiter-Blue viability (DSS (AUC-based score)); higher = stronger viability inhibition; extreme values may be limits of the assay
Summary of the method: (§2)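 Into 384-well plates carrying compound in a 5- or 9-concentration series went 20 µl of breast cancer cell suspension, followed by 72 h of incubation. Adding 2.5 µl CellTiter-Blue per well and incubating 2 h at 37 °C preceded fluorescence measurement at 560/590 nm. After normalisation of each plate to 0.1 % DMSO and a positive kill control, dose-response curves were fitted and the area beneath them taken as the drug sensitivity score.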

[20] = system: MDA-MB-231; assay: as above
Summary of the method: as §2

[21] = system: MDA-MB-468; assay: as above
Summary of the method: as §2

[22] = system: SK-BR-3; assay: as above
Summary of the method: as §2

Oc1nc(-c2ccc(C(F)(F)F)cc2)nc2c1CSCC2 [XAV-939]
normalised viability [%]
Settings	3 nM	10 nM	30 nM	100 nM	1000 nM	10000 nM
[1]	117	–	101	121	–	–
[2]	–	113	–	–	89.3	122
[3]	–	122	–	–	116	113
[4]	96	–	92.8	94.7	–	–
[5]	–	91.3	–	–	94.5	101
[6]	–	107	–	–	100	103
[7]	–	80.4	–	–	81.9	80.9
[8]	89.3	–	90.4	94.3	–	–
[9]	–	118	–	–	95	115
[10]	–	89.5	–	–	87.6	71.4
[11]	–	90.8	–	–	82.3	85.5
[12]	104	–	94.2	105	–	–
[13]	–	90.6	–	–	92.8	105
[14]	–	111	–	–	105	98.4
[15]	–	99.5	–	–	104	115
[16]	–	110	–	–	100	86.9
[17]	113	–	104	98.6	–	–
[18]	102	–	101	101	–	–

Settings	drug sensitivity score
[19]	0
[20]	2.73
[21]	0
[22]	0

NC(=O)Nc1cc(-c2cccc(F)c2)sc1C(=O)N[C@H]1CCCNC1 [AZD 7762]
normalised viability [%]
Settings	0.3 nM	1 nM	3 nM	10 nM	100 nM	1000 nM
[1]	99.3	–	109	100	–	–
[2]	–	104	–	–	108	27.9
[3]	–	99	–	–	83.7	18.5
[4]	106	–	98.6	99.4	–	–
[5]	–	114	–	–	118	35.5
[6]	–	119	–	–	113	106
[7]	–	120	–	–	109	34.8
[8]	110	–	106	111	–	–
[9]	–	93.2	–	–	73.1	53.9
[10]	–	112	–	–	102	31.2
[11]	–	106	–	–	90	27.3
[12]	113	–	93.2	108	–	–
[13]	–	118	–	–	101	26.5
[14]	–	107	–	–	103	22.2
[15]	–	101	–	–	93.2	11.5
[16]	–	101	–	–	104	51.7
[17]	108	–	114	115	–	–
[18]	101	–	93.7	102	–	–

Settings	drug sensitivity score
[19]	0
[20]	1.83
[21]	2.52
[22]	4.87

COc1cc2nccc(Oc3ccc(NC(=O)C4(C(=O)Nc5ccc(F)cc5)CC4)cc3)c2cc1OC [Cabozantinib]
normalised viability [%]
Settings	0.3 nM	1 nM	3 nM	10 nM	100 nM	1000 nM
[1]	90.4	–	78	88.4	–	–
[2]	–	98	–	–	87.5	100
[3]	–	110	–	–	102	97.3
[4]	89.2	–	87.5	88.9	–	–
[5]	–	96.3	–	–	108	101
[6]	–	125	–	–	119	127
[7]	–	78.9	–	–	87.9	85.5
[8]	94.5	–	103	94.2	–	–
[9]	–	91.8	–	–	88.6	74.6
[10]	–	86.4	–	–	94.1	87.7
[11]	–	128	–	–	102	111
[12]	111	–	96.9	108	–	–
[13]	–	85.5	–	–	77.8	86.5
[14]	–	110	–	–	106	101
[15]	–	115	–	–	110	109
[16]	–	88.5	–	–	84	53.7
[17]	97.7	–	93.7	112	–	–
[18]	109	–	106	97.8	–	–

Settings	drug sensitivity score
[19]	0
[20]	0
[21]	0
[22]	0

Cc1ccc(C(=O)Nc2ccc(CN3CCN(C)CC3)c(C(F)(F)F)c2)cc1C#Cc1cnc2cccnn12 [Ponatinib]
Settings	normalised viability [%]
[1], 0.3 nM	91.6
[1], 3 nM	91.7
[1], 10 nM	84.5
[2], 1 nM	78.3
[2], 100 nM	115
[3], 1 nM	106
[3], 100 nM	91.5
[3], 1000 nM	90.5
[4], 0.3 nM	92.5
[4], 3 nM	85.4
[4], 10 nM	101
[5], 1 nM	107
[5], 100 nM	120
[5], 1000 nM	49.3
[6], 1 nM	102
[6], 100 nM	110
[6], 1000 nM	91.2
[7], 100 nM	113
[7], 1000 nM	98.8
[8], 0.3 nM	96.8
[8], 3 nM	105
[8], 10 nM	110
[9], 1 nM	95.4
[9], 100 nM	95.4
[9], 1000 nM	64.9
[10], 1 nM	98.8
[10], 100 nM	82.6
[10], 1000 nM	16.9
[11], 1 nM	105
[11], 100 nM	110
[11], 1000 nM	73.9
[12], 0.3 nM	102
[12], 3 nM	101
[12], 10 nM	87.3
[13], 1 nM	95.3
[13], 100 nM	85.4
[13], 1000 nM	13.8
[14], 1 nM	98.2
[14], 1000 nM	78.7
[15], 1 nM	104
[15], 100 nM	103
[15], 1000 nM	71.3
[16], 1 nM	100
[16], 1000 nM	35.7
[17], 0.3 nM	102
[17], 3 nM	126
[17], 10 nM	115
[18], 0.3 nM	95.2
[18], 3 nM	97.7
[18], 10 nM	89.5

Settings	drug sensitivity score
[19]	0
[20]	7.46
[21]	0
[22]	0

C[C@]12CC[C@@H]3c4ccc(O)cc4C[C@@H](CCCCCCCCC[S+]([O-])CCCC(F)(F)C(F)(F)F)[C@H]3[C@@H]1CC[C@@H]2O (stereo not given in full) [Fulvestrant]
normalised viability [%]
Settings	3 nM	10 nM	30 nM	100 nM	1000 nM	10000 nM
[1]	91.6	–	78	91.5	–	–
[2]	–	88.3	–	–	85.5	88.3
[3]	–	94.4	–	–	97.5	90.6
[4]	91.8	–	91.7	90.3	–	–
[5]	–	74.7	–	–	86.5	74.8
[6]	–	94.7	–	–	88.4	107
[7]	–	76.6	–	–	81.5	78.1
[8]	89	–	87.5	87.3	–	–
[9]	–	93.9	–	–	82.6	92.4
[10]	–	105	–	–	99.7	90.2
[11]	–	103	–	–	91.7	86.2
[12]	108	–	81.1	93.7	–	–
[13]	–	79.2	–	–	90.7	87.6
[14]	–	97.5	–	–	104	83.6
[15]	–	76.9	–	–	109	84.5
[16]	–	67.2	–	–	77.6	45.2
[17]	83.7	–	92.2	94	–	–
[18]	116	–	107	109	–	–

Settings	drug sensitivity score
[19]	0
[20]	0
[21]	0
[22]	0

CCC1(c2ccc(N)cc2)CCC(=O)NC1=O (stereo not given) [Aminoglutethimide]
normalised viability [%]
Settings	3 nM	10 nM	30 nM	100 nM	1000 nM	10000 nM
[1]	107	–	86.9	85.2	–	–
[2]	–	93.3	–	–	92.9	83.4
[3]	–	95.9	–	–	112	91.6
[4]	104	–	89.6	103	–	–
[5]	–	84.2	–	–	101	76.4
[6]	–	107	–	–	104	105
[7]	–	124	–	–	115	122
[8]	108	–	105	106	–	–
[9]	–	90.8	–	–	92.7	95.3
[10]	–	86.9	–	–	90.2	106
[11]	–	95.8	–	–	113	89.8
[12]	94.9	–	93	89.2	–	–
[13]	–	111	–	–	116	108
[14]	–	97.3	–	–	103	110
[15]	–	99.1	–	–	100	109
[16]	–	97	–	–	102	97.5
[17]	84.8	–	99.2	103	–	–
[18]	87.2	–	92.6	92.8	–	–

Settings	drug sensitivity score
[19]	0
[20]	0
[21]	0
[22]	0

NCC(=O)CCC(=O)O [Aminolevulinic acid]
normalised viability [%]
Settings	3 nM	10 nM	30 nM	100 nM	1000 nM	10000 nM
[1]	104	–	77.5	110	–	–
[2]	–	86.8	–	–	84.2	86.4
[3]	–	99.1	–	–	102	96.5
[4]	99.9	–	87.1	98.8	–	–
[5]	–	85.6	–	–	84.1	90
[6]	–	115	–	–	119	131
[7]	–	81.1	–	–	82.6	85.2
[8]	93.8	–	101	98.8	–	–
[9]	–	84.3	–	–	86.5	90.8
[10]	–	107	–	–	93.2	111
[11]	–	108	–	–	104	96.3
[12]	110	–	93.5	90.2	–	–
[13]	–	89.6	–	–	103	104
[14]	–	101	–	–	111	102
[15]	–	96.3	–	–	108	101
[16]	–	92.2	–	–	91.3	87.3
[17]	95.2	–	105	110	–	–
[18]	105	–	100	92.9	–	–

Settings	drug sensitivity score
[19]	0
[20]	0
[21]	0
[22]	0

CN(N=O)C(=O)N[C@@H](C=O)[C@@H](O)[C@H](O)[C@H](O)CO [Streptozocin]
normalised viability [%]
Settings	3 nM	10 nM	30 nM	100 nM	1000 nM	10000 nM
[1]	101	–	96.5	103	–	–
[2]	–	87.4	–	–	63.3	75.9
[3]	–	110	–	–	88.1	90.6
[4]	95.7	–	92.1	95.4	–	–
[5]	–	93	–	–	103	83.7
[6]	–	125	–	–	98.6	135
[7]	–	87.5	–	–	97.4	92.5
[8]	98.6	–	97.3	99.3	–	–
[9]	–	104	–	–	85.9	113
[10]	–	101	–	–	138	110
[11]	–	110	–	–	103	101
[12]	116	–	89.4	93	–	–
[13]	–	106	–	–	101	113
[14]	–	107	–	–	105	113
[15]	–	101	–	–	110	126
[16]	–	93.1	–	–	93	86.8
[17]	103	–	109	111	–	–
[18]	115	–	112	107	–	–

Settings	drug sensitivity score
[19]	0
[20]	0
[21]	0
[22]	0
